{
  "source": "patent US3991210A",
  "about": "“Acetamidine urinary antiseptics” (The Dow Chemical Company, priority 1975, dated 1976)",
  "key": {"[1]": {"assay": "Acute oral lethality (LD50) in mice", "settings": "mouse, in vivo", "description": "Separate groups of mice are separately administered an aqueous composition containing 2-(4-bromophenyl)acetamidine hydrochloride. The compound is administered per os at various dosage rates, and the animals are held for 24 hours, after which deaths are recorded, and the LD50 (dosage lethal to 50 percent of the mice) is determined."}, "[2]": {"assay": "Anorectic effect on repeated oral dosing in rats", "format": "in vivo", "settings": "100 mg/kg per day"}, "Proteus mirabilis": {"test_system": "Proteus mirabilis", "assay": "Proteus mirabilis urinary tract infection in rats, bacterial count per kidney (Example 6)", "format": "in vivo", "settings": "oral; for Mean Bacterial Count (number of organisms per kidney): three doses at 4, 28, 52 hours, 72 hours", "description": "In a similar operation, a Proteus mirabilis urinary tract infection was established in rats using a similar surgical technique. In separate groups, the test compound 2-(4-bromophenyl)acetamidine p-toluene-sulfonate, or the reference compound nalidixic acid, were administered orally in three doses, 4, 28 and 52 hours after completion of the surgical technique used to establish the infection. Separate groups of rats were left untreated to serve as controls. After 72 hours, the animals were euthanized with carbon dioxide. The left kidney was removed, homogenized in 9 milliliters sterile saline solution, and fivefold dilutions of the resulting brei were made in brain-heart infusion broth. Bacterial counts in the dilutions were determined after 24 hours incubation at 37° C. The oral dose in milligrams per kilogram (mg/kg); millimoles per kilogram (mM); the number of animals in each group, and the base ten logarithm (Log10) of the bacterial count (number of organisms per kidney) are set out below."}, "[3]": {"assay": "Stability in comparison to the hydrochloride salt (general statement)", "format": "physicochemical", "settings": "versus hydrochloride salt"}, "[4]": {"test_system": "bacterial microorganisms which may infect the mammalian urinary system", "assay": "Urinary antiseptic activity (general statement)", "design": "species or system mammals", "settings": "in vivo"}, "[5]": {"assay": "Toxicity / detrimental pharmacological effects (general statement)", "format": "in vivo, mammals"}},
  "data": [
    {"smiles": "Cc1ccc(S(=O)(=O)O)cc1.N=C(N)Cc1ccc(Br)cc1", "note": "[2-(4-bromophenyl)acetamidine p-toluene-sulfonate]", "values": [
      {"measurement": "LD50 at 24 h", "setting": "[1]", "value": 2610, "unit": "mg/kg"},
      {"measurement": "anorectic effect, by the fourth week", "setting": "[2]; by the fourth week of dosing", "value": "decreases and substantially disappears by the fourth week of dosing"},
      {"measurement": "anorectic effect, first week", "setting": "[2]; during the first week", "value": "an anorectic effect is observed during the first week"},
      {"measurement": "Mean Bacterial Count (number of organisms per kidney)", "setting": "Proteus mirabilis; 12.5 mg/kg", "value": 7.49, "unit": "Log10"},
      {"measurement": "Mean Bacterial Count (number of organisms per kidney)", "setting": "Proteus mirabilis; 25 mg/kg", "value": 6.01, "unit": "Log10"},
      {"measurement": "Mean Bacterial Count (number of organisms per kidney)", "setting": "Proteus mirabilis; 50 mg/kg", "value": 4.23, "unit": "Log10"},
      {"measurement": "Mean Bacterial Count (number of organisms per kidney)", "setting": "Proteus mirabilis; 100 mg/kg", "value": 2.68, "unit": "Log10"},
      {"measurement": "reduction of bacterial counts relative to nalidixic acid, weight basis", "setting": "Proteus mirabilis; equal dose of nalidixic acid on a weight basis", "value": "comparable to an equal dose of nalidixic acid, on a weight basis"},
      {"measurement": "effectiveness relative to nalidixic acid, molar basis", "setting": "Proteus mirabilis; on a molar basis", "value": "more effective, on a molar basis, than nalidixic acid"},
      {"measurement": "stability in comparison to the corresponding hydrochloride salt", "setting": "[3]", "value": "improved"},
      {"measurement": "urinary antiseptic activity", "setting": "[4]", "value": "high degree of urinary antiseptic activity"},
      {"measurement": "toxicity", "setting": "[5]; in vivo", "value": "low toxicity"},
      {"measurement": "toxicity characteristics in comparison to the corresponding hydrochloride salt", "setting": "[5]; versus hydrochloride salt", "value": "improved"}
    ]}
  ]
}
